The values that follow come from US8987267B2, “2-substituted-8-alkyl-7-OXO-7,8-dihydropyrido[2,3-D]pyrimidine-6-carbonitriles and uses thereof in treating proliferative disorders” (Temple University—of the Commonwealth System of Higher …, priority 2010, dated 2015).

Common to all, as to assay type: biochemical
Assay [1] has as its target TTK (Homo sapiens, UniProt P33981). Briefly: Kinase inhibition panel. To be noted: 10 μM ATP.
For assay [2], the target named is T1, His-tagged full length ARK5 (Homo sapiens, UniProt O60285).
T1 construct: 20 ng His-tagged full length ARK5 (Invitrogen PV4127); His; purchased Invitrogen PV4127
T1 sequence (O60285 1-661): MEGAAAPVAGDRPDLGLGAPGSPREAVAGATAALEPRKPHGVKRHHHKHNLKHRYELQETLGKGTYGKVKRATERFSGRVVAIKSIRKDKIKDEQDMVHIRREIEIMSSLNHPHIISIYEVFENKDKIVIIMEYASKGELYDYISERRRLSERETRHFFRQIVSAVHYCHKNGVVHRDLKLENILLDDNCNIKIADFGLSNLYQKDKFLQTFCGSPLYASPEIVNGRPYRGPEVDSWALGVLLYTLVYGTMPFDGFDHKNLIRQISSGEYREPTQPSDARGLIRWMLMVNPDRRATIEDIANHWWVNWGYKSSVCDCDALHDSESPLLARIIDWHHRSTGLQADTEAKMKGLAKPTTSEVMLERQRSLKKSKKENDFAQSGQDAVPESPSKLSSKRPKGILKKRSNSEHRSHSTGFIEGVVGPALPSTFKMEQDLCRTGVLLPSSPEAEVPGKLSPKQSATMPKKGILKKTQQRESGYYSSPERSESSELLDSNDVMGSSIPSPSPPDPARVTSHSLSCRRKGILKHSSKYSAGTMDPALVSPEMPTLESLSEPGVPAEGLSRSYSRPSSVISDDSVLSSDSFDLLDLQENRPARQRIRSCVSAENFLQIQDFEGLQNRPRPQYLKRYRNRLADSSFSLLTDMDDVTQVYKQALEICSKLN
Nature of the assay: ARK5 Kinase Assay (ARK5 Inhibition Assay). Conditions: CHKtide substrate, 1 μM ATP. How it is done: 20 ng His-tagged full length ARK5 (Invitrogen PV4127), a protein kinase, was diluted into kinase buffer (25 mM HEPES pH 7.5, 10 mM MgCl2, 0.5 mM EGTA, 0.5 mM Na3V04, 5 mM β Glycerophosphate, 2.5 mM DTT, 0.01% Triton X-100) and incubated with the indicated concentration of a compound of Table 3 at room temperature for 30 minutes. The kinase reactions were then initiated by the addition of 1 μg (3.28 μM) CHKtide substrate peptide (Upstate 12-414), 1 μM ATP and 10 μCi γ^32 P-ATP. The reactions were incubated at 30° C. for 10 minutes.
Subsequently, the reactions were stopped by adding 3% phosphoric acid. A 10 μl aliquot was then transferred to an appropriate area of a p30 filtermat. The filtermat was allowed to dry for 20 minutes at room temperature and then washed three times with 75 mM phosphoric acid and twice with methanol. The filtermat was then dried for 20 minutes at room temperature. The filtermat was then exposed to X ray film or read in a scintillation counter. The scintillation counting values were plotted as function of log drug concentration using Prism 4 Graph pad software and IC50 values determined by plotting sigmoidal non-linear regression curves with variable slope.

Assay [3] has as its target PKCnu/PRK D3 (Homo sapiens, UniProt O94806). Nature of the assay: Kinase inhibition panel. To be noted: 10 μM ATP.
Assay [4] has as its target FYN (Homo sapiens, UniProt P06241). Briefly: Kinase inhibition panel. Conditions: 10 μM ATP.
The target in assay [5] is FLT3 (Homo sapiens, UniProt P36888). Briefly: Kinase inhibition panel. To be noted: 10 μM ATP.
Assay [6] deals with CDK4/Cyclin D3 (Homo sapiens, UniProt P11802). Nature of the assay: Kinase inhibition panel. To be noted: 10 μM ATP.
Assay [7] addresses PKCmu (Homo sapiens, UniProt Q15139). Briefly: Kinase inhibition panel. Conditions: 10 μM ATP.

Molecules are shown by their SMILES.

Sequence of PKCmu (Q15139 whole entry): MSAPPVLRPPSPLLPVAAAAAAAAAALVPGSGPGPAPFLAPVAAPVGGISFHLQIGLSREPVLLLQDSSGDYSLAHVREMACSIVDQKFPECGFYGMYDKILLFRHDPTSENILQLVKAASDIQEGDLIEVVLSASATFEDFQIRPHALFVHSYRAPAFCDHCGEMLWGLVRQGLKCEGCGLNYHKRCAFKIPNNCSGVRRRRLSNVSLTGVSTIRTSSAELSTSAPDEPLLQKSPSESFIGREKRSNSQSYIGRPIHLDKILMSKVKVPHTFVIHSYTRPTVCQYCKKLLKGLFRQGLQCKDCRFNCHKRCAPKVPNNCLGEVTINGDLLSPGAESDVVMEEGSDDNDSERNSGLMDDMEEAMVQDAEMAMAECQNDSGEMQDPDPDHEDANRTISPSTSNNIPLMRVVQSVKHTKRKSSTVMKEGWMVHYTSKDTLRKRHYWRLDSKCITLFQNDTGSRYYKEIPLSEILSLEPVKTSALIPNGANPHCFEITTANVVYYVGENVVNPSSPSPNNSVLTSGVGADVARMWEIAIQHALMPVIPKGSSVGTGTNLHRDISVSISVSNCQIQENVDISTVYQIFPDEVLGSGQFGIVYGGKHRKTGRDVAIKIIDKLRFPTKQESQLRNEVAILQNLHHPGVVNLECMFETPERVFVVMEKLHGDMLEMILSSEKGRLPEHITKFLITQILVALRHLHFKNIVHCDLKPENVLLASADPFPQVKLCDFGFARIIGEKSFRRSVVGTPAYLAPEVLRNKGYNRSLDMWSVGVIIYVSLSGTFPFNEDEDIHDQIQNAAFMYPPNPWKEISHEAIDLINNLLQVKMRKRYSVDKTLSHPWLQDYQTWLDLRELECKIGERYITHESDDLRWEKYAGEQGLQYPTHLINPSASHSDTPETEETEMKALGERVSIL
Sequence of PKCnu/PRK D3 (O94806 whole entry): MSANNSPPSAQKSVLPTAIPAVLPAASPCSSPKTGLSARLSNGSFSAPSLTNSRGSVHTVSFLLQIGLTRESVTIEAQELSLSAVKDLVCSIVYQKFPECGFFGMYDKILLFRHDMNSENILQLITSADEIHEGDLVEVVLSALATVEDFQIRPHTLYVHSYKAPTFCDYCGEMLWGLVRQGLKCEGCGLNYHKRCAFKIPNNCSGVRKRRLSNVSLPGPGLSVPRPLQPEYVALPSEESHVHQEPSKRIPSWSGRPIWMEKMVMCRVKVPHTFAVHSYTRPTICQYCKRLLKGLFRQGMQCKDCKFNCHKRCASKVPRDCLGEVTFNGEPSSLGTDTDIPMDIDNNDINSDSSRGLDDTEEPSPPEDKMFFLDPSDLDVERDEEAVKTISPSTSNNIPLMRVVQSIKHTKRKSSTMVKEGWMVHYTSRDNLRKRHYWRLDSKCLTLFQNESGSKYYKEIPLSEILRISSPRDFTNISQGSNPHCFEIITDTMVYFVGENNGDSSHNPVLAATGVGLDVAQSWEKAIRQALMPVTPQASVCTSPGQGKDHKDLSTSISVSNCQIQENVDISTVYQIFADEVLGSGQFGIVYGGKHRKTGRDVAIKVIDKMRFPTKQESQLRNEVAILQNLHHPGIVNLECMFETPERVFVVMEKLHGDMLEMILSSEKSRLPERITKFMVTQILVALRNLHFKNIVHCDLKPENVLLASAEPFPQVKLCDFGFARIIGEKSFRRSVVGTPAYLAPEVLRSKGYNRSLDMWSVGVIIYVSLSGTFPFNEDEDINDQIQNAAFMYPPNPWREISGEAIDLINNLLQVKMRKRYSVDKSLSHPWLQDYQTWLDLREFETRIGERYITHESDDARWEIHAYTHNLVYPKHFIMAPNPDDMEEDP
Sequence of CDK4/Cyclin D3 (P11802 whole entry, species assumed): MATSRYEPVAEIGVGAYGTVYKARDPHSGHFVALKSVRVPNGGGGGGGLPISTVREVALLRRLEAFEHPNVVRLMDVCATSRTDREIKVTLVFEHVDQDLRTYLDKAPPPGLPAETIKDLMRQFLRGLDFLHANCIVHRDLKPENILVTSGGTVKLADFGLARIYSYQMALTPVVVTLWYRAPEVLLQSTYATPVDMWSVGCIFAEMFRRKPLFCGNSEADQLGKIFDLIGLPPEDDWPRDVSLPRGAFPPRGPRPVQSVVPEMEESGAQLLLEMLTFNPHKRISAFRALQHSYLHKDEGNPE
Sequence of CDK4/Cyclin D3 (P30281 whole entry partner, species assumed): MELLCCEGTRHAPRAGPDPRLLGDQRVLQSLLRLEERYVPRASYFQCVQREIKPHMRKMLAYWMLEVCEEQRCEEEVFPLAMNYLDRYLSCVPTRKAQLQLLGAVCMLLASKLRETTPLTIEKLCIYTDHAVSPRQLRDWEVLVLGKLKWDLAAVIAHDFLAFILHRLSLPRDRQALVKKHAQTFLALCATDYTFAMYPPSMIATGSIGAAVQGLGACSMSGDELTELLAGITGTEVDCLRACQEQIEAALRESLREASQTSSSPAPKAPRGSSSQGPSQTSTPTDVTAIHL
Sequence of FLT3 (P36888 27-993, species assumed): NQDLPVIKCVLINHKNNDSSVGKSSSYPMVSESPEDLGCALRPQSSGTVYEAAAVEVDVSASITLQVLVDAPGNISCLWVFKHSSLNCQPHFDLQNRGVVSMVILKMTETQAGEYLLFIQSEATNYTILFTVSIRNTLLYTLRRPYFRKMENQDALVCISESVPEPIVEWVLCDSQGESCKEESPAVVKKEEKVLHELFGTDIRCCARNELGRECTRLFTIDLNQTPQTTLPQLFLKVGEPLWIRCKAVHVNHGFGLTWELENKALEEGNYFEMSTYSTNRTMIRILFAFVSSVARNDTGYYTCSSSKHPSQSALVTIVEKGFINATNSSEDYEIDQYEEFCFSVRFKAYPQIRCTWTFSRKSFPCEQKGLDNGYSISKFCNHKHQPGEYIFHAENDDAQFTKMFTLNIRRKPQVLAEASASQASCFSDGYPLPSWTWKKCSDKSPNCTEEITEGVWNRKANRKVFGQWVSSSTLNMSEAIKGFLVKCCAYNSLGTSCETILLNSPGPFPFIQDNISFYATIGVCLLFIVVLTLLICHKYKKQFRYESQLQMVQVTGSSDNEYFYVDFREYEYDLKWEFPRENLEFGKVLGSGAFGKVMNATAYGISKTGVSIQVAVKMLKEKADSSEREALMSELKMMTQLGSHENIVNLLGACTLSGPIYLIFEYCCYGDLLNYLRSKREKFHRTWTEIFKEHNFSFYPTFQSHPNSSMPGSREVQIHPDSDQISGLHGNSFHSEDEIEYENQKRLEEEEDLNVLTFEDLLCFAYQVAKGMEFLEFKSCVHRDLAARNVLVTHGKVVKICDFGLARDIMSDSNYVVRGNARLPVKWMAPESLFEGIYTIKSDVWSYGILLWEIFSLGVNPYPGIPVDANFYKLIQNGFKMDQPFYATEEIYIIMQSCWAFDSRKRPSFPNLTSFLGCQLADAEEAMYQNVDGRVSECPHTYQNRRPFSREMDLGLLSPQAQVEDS
Sequence of FYN (P06241 whole entry, species assumed): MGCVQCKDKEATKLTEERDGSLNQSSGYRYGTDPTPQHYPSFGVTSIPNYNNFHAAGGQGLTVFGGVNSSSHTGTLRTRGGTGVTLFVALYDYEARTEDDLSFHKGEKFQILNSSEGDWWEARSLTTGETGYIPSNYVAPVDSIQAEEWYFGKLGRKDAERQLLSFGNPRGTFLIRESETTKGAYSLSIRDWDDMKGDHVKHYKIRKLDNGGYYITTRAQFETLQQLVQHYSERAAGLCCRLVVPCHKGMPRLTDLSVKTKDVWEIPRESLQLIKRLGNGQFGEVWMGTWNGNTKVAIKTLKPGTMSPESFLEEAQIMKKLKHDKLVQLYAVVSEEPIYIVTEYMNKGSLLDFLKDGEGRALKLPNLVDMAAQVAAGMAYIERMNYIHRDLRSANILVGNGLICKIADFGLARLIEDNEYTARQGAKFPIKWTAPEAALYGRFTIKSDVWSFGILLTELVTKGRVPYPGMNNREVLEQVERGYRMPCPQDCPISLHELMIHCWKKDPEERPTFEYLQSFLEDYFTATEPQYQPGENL
Sequence of TTK (P33981 whole entry, species assumed): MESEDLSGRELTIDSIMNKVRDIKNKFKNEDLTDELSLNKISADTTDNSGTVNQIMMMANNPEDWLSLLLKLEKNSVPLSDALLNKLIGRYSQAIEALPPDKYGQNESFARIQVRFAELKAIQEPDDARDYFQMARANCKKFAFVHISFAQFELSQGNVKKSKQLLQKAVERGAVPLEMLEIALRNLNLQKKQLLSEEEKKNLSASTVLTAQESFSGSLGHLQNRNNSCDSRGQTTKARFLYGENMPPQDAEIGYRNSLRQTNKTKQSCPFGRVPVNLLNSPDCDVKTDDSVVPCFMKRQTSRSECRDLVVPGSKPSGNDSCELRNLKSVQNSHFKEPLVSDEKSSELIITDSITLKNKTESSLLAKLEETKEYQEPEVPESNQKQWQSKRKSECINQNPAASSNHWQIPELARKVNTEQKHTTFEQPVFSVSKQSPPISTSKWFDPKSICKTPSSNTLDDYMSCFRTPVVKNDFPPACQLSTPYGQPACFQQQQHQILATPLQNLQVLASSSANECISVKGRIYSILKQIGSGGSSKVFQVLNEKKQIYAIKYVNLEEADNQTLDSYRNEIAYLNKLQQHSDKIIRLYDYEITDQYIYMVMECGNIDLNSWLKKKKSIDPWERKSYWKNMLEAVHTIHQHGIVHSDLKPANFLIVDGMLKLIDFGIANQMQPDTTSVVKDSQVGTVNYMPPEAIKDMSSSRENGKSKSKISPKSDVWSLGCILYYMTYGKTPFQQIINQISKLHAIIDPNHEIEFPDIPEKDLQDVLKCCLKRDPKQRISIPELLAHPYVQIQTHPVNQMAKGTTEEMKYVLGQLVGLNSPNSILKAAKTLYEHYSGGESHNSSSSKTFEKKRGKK

In general, IC50 refers to the concentration that inhibits the measured activity by half. A higher IC50 goes with weaker potency in that assay. In the case of `CN1CCN(c2ccc(Nc3ncc4cc(C#N)c(=O)n(C5CCCC5)c4n3)cc2)CC1` [Compound 12, 8-cyclopentyl-2-((4-(4-methylpiperazin-1-yl)phenyl)amino)-7-oxo-7,8-dihydropyrido[2,3-d]pyrimidine-6-carbonitrile], the IC50 in assay [1] was 156 nM; in assay [2] it was 27.3 nM; in assay [3], 55.8 nM; in assay [4], 26.6 nM; in assay [5], 13.6 nM; in assay [6], 21.2 nM. Half-maximal inhibition in assay [7] (IC50) required 142 nM.
